# Data from patent US20260085315A1, “POLYNUCLEOTIDE COMPOSITIONS AND METHODS FOR TREATMENT OF CANCER” (APTAH BIO, INC., priority 2023, published 2026).
# Values joined by “and” are separate entries in the source; they are usually repeats but may differ in a detail not shown here. Identical values can stand only once. d = 2'-deoxy (DNA); m = 2'-O-methyl
# Experiments:
# 786-O line = assay: MTT cytotoxicity assay on human cancer cell panel (Example 2); format: cell-based; settings: 0.03-30 μM, 0.1% FBS
# Procedure: Cell lines were maintained in growth medium with 10% of Fetal Bovine Serum (FBS) until the time of the experiments. Cells were sub-cultured by trypsinization and splitting the cell suspension into fresh flasks and supplementing with fresh culture medium. To perform the assay, the cells were trypsinized, neutralized with complete medium (10% FBS), centrifuged, counted with assistance of a hemocytometer, and plated with the respective media with 10% FBS. Cell lines were plated at a density of 1×10^4 cells per well, other than the SH-SY5Y cell line which was plated at a density of 2.5×10^4. The preparation of the different experimental groups was done with 0.1% FBS (U87MG, MCF-7, SH-SY5Y and 786-O) and 1% FBS (PC-3). The untreated cells were used as negative control (medium only). After 24, 48, 72 and 96 hours of incubation, the effect of ASMO1 and controls on cytotoxicity of cells was determined by MTT assay.
# Briefly, plates were taken out and 20 μl of 5 mg/ml of MTT 3-(4,5-dimethythiazol-2-yl)-2,5-diphenyl tetrazolium bromide solution was added to all the wells. […] The absorbance of each well was then read at 540 nm using Synergy HT microplate reader.
# Cells were plated and treated with 7 different concentrations (0.03, 0.1, 0.3, 1, 3, 10 and 30 μM) of APT20TTMG with medium (0.1% FBS). MTT assay was performed in 3 distinct times and graphs are represented as absorbance (540 nm). […]
# MCF-7 cell line = assay: MTT cell viability assay (Example 3); format: cell-based, Human; settings: 48 hours, 2% FBS
# Procedure: MTT assay was carried out to assess the cell viability of MCF-7 cell line after treatment with ASMO APT20TTMG, and, therefore, infer the ASMO1 cytotoxicity. The tetrazolium salt reduction (MTT) method evaluates cell viability by assessing mitochondrial integrity. Viable cells are able to reduce MTT reagent, which is yellow and water-soluble, into an insoluble purple formazan product. Formazan quantification could be measured by a spectrophotometer absorbance at 560 nm. The quantity of formazan is directly proportional to the number of viable cells in the culture.
# For this assay, MCF-7 cells were plated in 96-well plates at a density of 1×10^4 cells/well and cultured for 24 hours for adhesion and, subsequently incubated with eight concentrations (0.0078-1 μM) of APT20TTMG (prepared in medium with 2% FBS) for the period of 48 hours. Then, cells were washed with 150 μL/well of PBS and incubated with 100 μL/well of MTT solution prepared in culture medium, at a concentration of 0.5 mg/mL for 3 hours in the incubator. […] Finally, the absorbance of the samples was measured in a plate reader spectrophotometer (Multiskan Spectrum, Thermo Scientific, Waltham, MA, USA), at a wavelength of 560 nm. The absorbance of each sample was used to determine the cell viability after each treatment condition.
# U87-MG cell line = assay: Apoptosis assay; format: cell-based, Human
# [1] = system: Human Glioblastoma Cancer (U-87MG) xenograft; assay: Histopathology of tumor samples with scoring; format: in vivo, athymic nude mice; set-up: key: 1: Few; 2: Moderate; 3: Large; settings: individual animals; G3 APT20TTMG, G2 TMZ
# Text: The fixed tissues were processed for routine paraffin embedding followed by sectioning (3-6 micron). The sections were stained with hematoxylin and eosin. The prepared slides were examined under microscope by the study pathologist to record histopathological findings in tumor samples, related to capsule formation, cell type, connective tissue stroma, apoptosis, necrosis, lipid content, nucleus-to-cytoplasmic (N:C) ratio, nuclei mitotic figures, tumor grade, and level of differentiation. Each histopathological finding and tumor volume were assigned a score ranging from 1 to 4 (Table 7). The sum of these scores for each sample was used to infer the tumor aggressiveness.
# [2] = two highest concentrations (0.5 and 1 μM)
substance,measurement,setting,value
"APT20TTMG: engineered polynucleotide ASMO1, 24 nt, SEQ ID NO: 3 gtccactaacctttcaggccagcg; targeting moieties 5′-GTCCA-3′ and 5′-CG-3′, U1 snRNP recruiting moiety (GTCCACTAACCTTTCAGGCCAGCG; sugars from the 5' end m5 d14 m5, all phosphorothioate, methylation of C and T or U not given here)",cell viability (MTT),786-O line; 48 and 72 hours,"no difference when compared to the control (vehicle group), only in the highest concentration (30 μM)"
same,cell viability (MTT),786-O line; 24 hours,can alter cell viability
same,cell viability (MTT),MCF-7 cell line; 0.5 μM,86.4±1.6%
same,cell viability (MTT),MCF-7 cell line; 1 μM,85±2.7%
same,late apoptosis,U87-MG cell line; 0.25 μM,trend toward this state
same,late apoptosis,U87-MG cell line; [2],significantly marked for late apoptosis
same,viable cells (apoptosis assay),U87-MG cell line; [2],reduce cell viability
same,Score: Mitotic figures,[1],1 (4×) and 3
